Assay results reported in PubChem BioAssay AID2060885 (Molecular Pharmacology Branch, DTP, NCI, 2025).

Tested on: NCI-H23 complex spheroids with HUVEC/MSC, viability
Experiment: Anticancer human tumor NCI-H23 cell line growth inhibition [RAS];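 further: spheroids exposed to compound for 7 days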;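 on viability, T/C: 100% = DMSO vehicle control viability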
Details: for IC50: curve of first compound; for viability, T/C: stronger effect = lower value
How it was run: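 Tumour cells grown as complex spheroids with HUVEC endothelial cells and mesenchymal stem cells, treated with RAS pathway inhibitor combinations. Each agent spans half-log steps from near clinical Cmax, or 10 microM where Cmax is unknown.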

[1] = second compound 0.00316 µM, first compound 0.0316 µM
[2] = second compound 0.00316 µM, first compound 0.1 µM
[3] = second compound 0.01 µM, first compound 0.0316 µM
[4] = second compound 0.01 µM, first compound 0.1 µM
[5] = second compound 0.0316 µM, first compound 0.0316 µM
[6] = second compound 0.0316 µM, first compound 0.1 µM
[7] = second compound 0.1 µM, first compound 0.0316 µM
[8] = second compound 0.1 µM, first compound 0.1 µM
[9] = second compound 0.316 µM, first compound 0.0316 µM
[10] = second compound 0.316 µM, first compound 0.1 µM
[11] = second compound 1 µM, first compound 0.0316 µM
[12] = second compound 1 µM, first compound 0.1 µM

**Q.** With `CC(C)NCC(C(=O)N1CCN(c2ncnc3c2C(C)CC3O)CC1)c1ccc(Cl)cc1` (centres undefined) + C=CC(=O)N1CCN(c2nc(OCC3CCCN3C)nc3c(F)c(-c4nc(N)cc(C)c4C(F)(F)F)c(Cl)cc23)C(C)C1 as the molecule, how does the IC50 (second compound 0.00316 µM) read?
**A.** Its IC50 is 0.548 µM.

**Q.** And the IC50 (second compound 0.01 µM)?
**A.** The IC50 was 0.0859 µM.

**Q.** What about the IC50 (second compound 0.0316 µM) of the same molecule?
**A.** Its IC50 is < 0.0316 µM.

**Q.** And the IC50 (second compound 0.1 µM)?
**A.** The IC50 was < 0.0316 µM.

**Q.** What about the IC50 (second compound 0.316 µM) of the same molecule?
**A.** The IC50 was < 0.0316 µM.

**Q.** What about the IC50 (second compound 1 µM) of the same molecule?
**A.** The IC50 was < 0.0316 µM.

**Q.** What about the viability, T/C [1] of the same molecule?
**A.** The viability, T/C was 57.1%.

**Q.** And the viability, T/C [2]?
**A.** The viability, T/C was 67.7%.

**Q.** What about the viability, T/C (second compound 0.00316 µM, first compound 0.316 µM) of the same molecule?
**A.** The viability, T/C was 51.7%.

**Q.** What about the viability, T/C (second compound 0.00316 µM, first compound 1 µM) of the same molecule?
**A.** The viability, T/C was 45.4%.

**Q.** And the viability, T/C (second compound 0.00316 µM, first compound 3.16 µM)?
**A.** The viability, T/C was 33.4%.

**Q.** What about the viability, T/C (second compound 0.00316 µM, first compound 10 µM) of the same molecule?
**A.** Its viability, T/C is 29.2%.

**Q.** And the viability, T/C [3]?
**A.** Its viability, T/C is 52.5%.

**Q.** What about the viability, T/C [4] of the same molecule?
**A.** The viability, T/C was 54.5%.

**Q.** What about the viability, T/C (second compound 0.01 µM, first compound 0.316 µM) of the same molecule?
**A.** The viability, T/C was 39.5%.

**Q.** What about the viability, T/C (second compound 0.01 µM, first compound 1 µM) of the same molecule?
**A.** The viability, T/C was 37%.

**Q.** What about the viability, T/C (second compound 0.01 µM, first compound 3.16 µM) of the same molecule?
**A.** Its viability, T/C is 28.4%.

**Q.** What about the viability, T/C (second compound 0.01 µM, first compound 10 µM) of the same molecule?
**A.** Its viability, T/C is 20%.

**Q.** And the viability, T/C [5]?
**A.** Its viability, T/C is 39.1%.

**Q.** What about the viability, T/C [6] of the same molecule?
**A.** The viability, T/C was 48.1%.

**Q.** And the viability, T/C (second compound 0.0316 µM, first compound 0.316 µM)?
**A.** The viability, T/C was 31.2%.

**Q.** What about the viability, T/C (second compound 0.0316 µM, first compound 1 µM) of the same molecule?
**A.** The viability, T/C was 30.2%.

**Q.** What about the viability, T/C (second compound 0.0316 µM, first compound 3.16 µM) of the same molecule?
**A.** The viability, T/C was 24.3%.

**Q.** What about the viability, T/C (second compound 0.0316 µM, first compound 10 µM) of the same molecule?
**A.** The viability, T/C was 16.9%.

**Q.** And the viability, T/C [7]?
**A.** Its viability, T/C is 39.3%.

**Q.** And the viability, T/C [8]?
**A.** The viability, T/C was 39.4%.

**Q.** What about the viability, T/C (second compound 0.1 µM, first compound 0.316 µM) of the same molecule?
**A.** Its viability, T/C is 29.9%.

**Q.** What about the viability, T/C (second compound 0.1 µM, first compound 1 µM) of the same molecule?
**A.** Its viability, T/C is 25.8%.

**Q.** What about the viability, T/C (second compound 0.1 µM, first compound 3.16 µM) of the same molecule?
**A.** Its viability, T/C is 20.2%.

**Q.** And the viability, T/C (second compound 0.1 µM, first compound 10 µM)?
**A.** The viability, T/C was 18.8%.

**Q.** And the viability, T/C [9]?
**A.** Its viability, T/C is 37%.

**Q.** And the viability, T/C [10]?
**A.** Its viability, T/C is 34.2%.

**Q.** And the viability, T/C (second compound 0.316 µM, first compound 0.316 µM)?
**A.** Its viability, T/C is 28.9%.

**Q.** And the viability, T/C (second compound 0.316 µM, first compound 1 µM)?
**A.** Its viability, T/C is 23.1%.

**Q.** What about the viability, T/C (second compound 0.316 µM, first compound 3.16 µM) of the same molecule?
**A.** The viability, T/C was 21.3%.

**Q.** What about the viability, T/C (second compound 0.316 µM, first compound 10 µM) of the same molecule?
**A.** The viability, T/C was 17.9%.

**Q.** And the viability, T/C [11]?
**A.** Its viability, T/C is 34.9%.

**Q.** And the viability, T/C [12]?
**A.** The viability, T/C was 37.1%.

**Q.** And the viability, T/C (second compound 1 µM, first compound 0.316 µM)?
**A.** Its viability, T/C is 34.2%.

**Q.** And the viability, T/C (second compound 1 µM, first compound 1 µM)?
**A.** The viability, T/C was 26.1%.

**Q.** What about the viability, T/C (second compound 1 µM, first compound 3.16 µM) of the same molecule?
**A.** The viability, T/C was 23.3%.

**Q.** What about the viability, T/C (second compound 1 µM, first compound 10 µM) of the same molecule?
**A.** The viability, T/C was 16.6%.

**Q.** Which results are given for `CC(C)n1nc(-c2ccc3oc(N)nc3c2)c2c(N)ncnc21` + C=CC(=O)N1CCN(c2nc(OCC3CCCN3C)nc3c(F)c(-c4nc(N)cc(C)c4C(F)(F)F)c(Cl)cc23)C(C)C1?
**A.** IC50 (second compound 0.00316 µM): 0.00325 µM; IC50 (second compound 0.01 µM): 0.000445 µM; IC50 (second compound 0.0316 µM): < 0.000316 µM; IC50 (second compound 0.1 µM): < 0.000316 µM; IC50 (second compound 0.316 µM): < 0.000316 µM; IC50 (second compound 1 µM): < 0.000316 µM; viability, T/C (second compound 0.00316 µM, first compound 0.000316 µM): 58.9%; viability, T/C (second compound 0.00316 µM, first compound 0.001 µM): 68.7%; viability, T/C (second compound 0.00316 µM, first compound 0.00316 µM): 45.9%; viability, T/C (second compound 0.00316 µM, first compound 0.01 µM): 35.2%; viability, T/C [1]: 27.3%; viability, T/C [2]: 17.7%; viability, T/C (second compound 0.01 µM, first compound 0.000316 µM): 52.1%; viability, T/C (second compound 0.01 µM, first compound 0.001 µM): 44.1%; viability, T/C (second compound 0.01 µM, first compound 0.00316 µM): 35.5%; viability, T/C (second compound 0.01 µM, first compound 0.01 µM): 25.7%; viability, T/C [3]: 21.2%; viability, T/C [4]: 16.9%; viability, T/C (second compound 0.0316 µM, first compound 0.000316 µM): 39.7%; viability, T/C (second compound 0.0316 µM, first compound 0.001 µM): 43.7%; viability, T/C (second compound 0.0316 µM, first compound 0.00316 µM): 28.2%; viability, T/C (second compound 0.0316 µM, first compound 0.01 µM): 26.2%; viability, T/C [5]: 17.3%; viability, T/C [6]: 16.9%; viability, T/C (second compound 0.1 µM, first compound 0.000316 µM): 37.8%; viability, T/C (second compound 0.1 µM, first compound 0.001 µM): 32.5%; viability, T/C (second compound 0.1 µM, first compound 0.00316 µM): 26.3%; viability, T/C (second compound 0.1 µM, first compound 0.01 µM): 23.8%; viability, T/C [7]: 17.9%; viability, T/C [8]: 14.2%; viability, T/C (second compound 0.316 µM, first compound 0.000316 µM): 30.6%; viability, T/C (second compound 0.316 µM, first compound 0.001 µM): 38.3%; viability, T/C (second compound 0.316 µM, first compound 0.00316 µM): 29.5%; viability, T/C (second compound 0.316 µM, first compound 0.01 µM): 22.3%; viability, T/C [9]: 17.1%; viability, T/C [10]: 15.8%; viability, T/C (second compound 1 µM, first compound 0.000316 µM): 27.9%; viability, T/C (second compound 1 µM, first compound 0.001 µM): 33.8%; viability, T/C (second compound 1 µM, first compound 0.00316 µM): 32.2%; viability, T/C (second compound 1 µM, first compound 0.01 µM): 25.9%; viability, T/C [11]: 22.5%; viability, T/C [12]: 16.2%
